According to ChEMBL document CHEMBL3112424, “Discovery and optimization of pyrimidone indoline amide PI3Kβ inhibitors for the treatment of phosphatase and tensin homologue (PTEN)-deficient cancers” (J Med Chem, 2014):

Tests used:
[1] = AUC (infinity) in Beagle dog at 10 mg/kg, po; type: ADME, organism-based, Canis lupus familiaris; design: time infinity, dose 10 mg/kg, route oral; details: plasma
[2] = test system: Mus musculus; assay: Toxicity in SCID mouse xenografted with BRAF-V600E/PTEN-deficient human UACC62 cells assessed as body weight loss at 150 mg/kg, po bid; type: organism-based, UACC-62; design: dose 150 mg/kg, route oral; details: in vivo
[3] = Cmax in Beagle dog at 3 mg/kg, iv; type: ADME, organism-based, Canis lupus familiaris; design: dose 3 mg/kg, route intravenous; details: in vivo
[4] = test system: Mus musculus; assay: Toxicity in SCID mouse xenografted with PTEN-deficient human PC3 cells at 150 mg/kg, po bid; type: organism-based, PC-3; design: dose 150 mg/kg, route oral; details: in vivo
[5] = Tmax in Beagle dog at 3 mg/kg, iv; type: ADME, organism-based, Canis lupus familiaris; design: dose 3 mg/kg, route intravenous; details: in vivo
[6] = Plasma concentration in SCID mouse xenografted with PTEN-deficient human PC3 cells at 100 mg/kg, po after 4 hrs; type: ADME, organism-based, PC-3; design: dose 100 mg/kg, route oral
[7] = Plasma concentration in SCID mouse xenografted with PTEN-deficient human PC3 cells at 100 mg/kg, po after 16 hrs; type: ADME, organism-based, PC-3; design: dose 100 mg/kg, route oral
[8] = molecular target: Cytochrome P450 3A4 (Homo sapiens, UniProt P08684); assay: Inhibition of recombinant human CYP3A4
[9] = Clearance in nude rat at 3 mg/kg, iv; type: ADME, organism-based; design: dose 3 mg/kg, route intravenous; details: in vivo
[10] = Oral bioavailability in Balb/c mouse plasma at 100 mg/kg by LC-MS/MS analysis; type: ADME, organism-based
[11] = Half life in nude rat at 10 mg/kg, po; type: ADME, organism-based; design: dose 10 mg/kg, route oral; details: in vivo
[12] = Volume of distribution at steady state in Balb/c mouse plasma at 3 mg/kg, iv by LC-MS/MS analysis; type: ADME, organism-based; design: dose 3 mg/kg, route intravenous; details: read-out: Vdss
[13] = test system: PC-3; assay: Antitumor activity against PTEN-deficient human PC3 cells xenografted in SCID mouse assessed as tumor growth inhibition at 150 mg/kg, po bid measured on day 31; type: functional
[14] = molecular target: Phosphatidylinositol 4-phosphate 3-kinase C2 domain-containing subunit alpha (Homo sapiens, UniProt O00443); assay: Inhibition of PI3KC2alpha (unknown origin)
[15] = molecular target: T1, Phosphatidylinositol 3-kinase C2 domain-containing subunit gamma (Homo sapiens, UniProt O75747); assay: Inhibition of PI3KC2gamma (unknown origin)
T1 sequence (O75747 whole entry): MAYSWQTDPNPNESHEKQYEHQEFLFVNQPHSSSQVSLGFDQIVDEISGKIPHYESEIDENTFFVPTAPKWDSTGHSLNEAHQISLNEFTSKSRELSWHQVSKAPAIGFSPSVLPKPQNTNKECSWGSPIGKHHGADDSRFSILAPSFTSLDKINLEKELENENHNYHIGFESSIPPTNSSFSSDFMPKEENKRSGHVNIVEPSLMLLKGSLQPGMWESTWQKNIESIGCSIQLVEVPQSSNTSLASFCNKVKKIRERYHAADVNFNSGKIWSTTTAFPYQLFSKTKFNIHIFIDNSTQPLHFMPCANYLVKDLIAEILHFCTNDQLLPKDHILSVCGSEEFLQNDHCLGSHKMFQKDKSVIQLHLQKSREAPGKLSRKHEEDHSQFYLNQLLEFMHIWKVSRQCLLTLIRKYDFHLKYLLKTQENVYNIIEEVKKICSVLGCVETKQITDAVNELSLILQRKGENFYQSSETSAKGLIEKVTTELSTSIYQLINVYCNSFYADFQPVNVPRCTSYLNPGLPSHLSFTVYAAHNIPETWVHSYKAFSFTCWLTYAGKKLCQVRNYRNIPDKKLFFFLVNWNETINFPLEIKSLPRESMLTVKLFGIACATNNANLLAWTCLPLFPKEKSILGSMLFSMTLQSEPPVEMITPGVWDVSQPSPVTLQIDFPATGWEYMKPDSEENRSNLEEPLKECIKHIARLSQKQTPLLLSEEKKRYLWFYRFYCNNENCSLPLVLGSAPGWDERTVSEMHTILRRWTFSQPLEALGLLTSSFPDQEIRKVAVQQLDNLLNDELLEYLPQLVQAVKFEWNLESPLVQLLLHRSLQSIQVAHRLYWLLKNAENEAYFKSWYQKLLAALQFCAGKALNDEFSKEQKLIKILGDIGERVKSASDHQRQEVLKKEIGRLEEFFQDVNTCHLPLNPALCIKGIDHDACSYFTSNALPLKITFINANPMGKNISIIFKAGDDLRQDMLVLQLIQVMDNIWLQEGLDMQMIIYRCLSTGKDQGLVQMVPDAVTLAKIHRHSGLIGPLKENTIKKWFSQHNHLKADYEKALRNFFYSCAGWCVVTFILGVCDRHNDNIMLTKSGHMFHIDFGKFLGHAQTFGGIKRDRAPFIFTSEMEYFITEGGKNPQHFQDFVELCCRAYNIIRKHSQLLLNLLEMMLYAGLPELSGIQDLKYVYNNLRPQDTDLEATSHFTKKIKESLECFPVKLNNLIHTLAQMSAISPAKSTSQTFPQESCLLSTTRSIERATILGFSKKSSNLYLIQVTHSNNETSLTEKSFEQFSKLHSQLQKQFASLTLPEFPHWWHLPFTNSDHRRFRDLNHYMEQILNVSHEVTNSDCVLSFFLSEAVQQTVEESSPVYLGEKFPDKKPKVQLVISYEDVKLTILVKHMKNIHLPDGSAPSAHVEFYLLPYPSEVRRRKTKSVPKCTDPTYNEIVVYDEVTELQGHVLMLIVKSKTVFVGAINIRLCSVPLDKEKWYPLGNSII

[16] = Oral bioavailability in Balb/c mouse plasma at 10 mg/kg by LC-MS/MS analysis; type: ADME, organism-based
[17] = test system: UACC-62; assay: Antitumor activity against BRAF-V600E/PTEN-deficient human UACC62 cells xenografted in SCID mouse assessed as tumor growth inhibition at 150 mg/kg, po bid measured on day 15; type: functional
[18] = test system: Mus musculus; assay: Toxicity in SCID mouse xenografted with PTEN-deficient human PC3 cells assessed as body weight loss at 150 mg/kg, po bid; type: organism-based, PC-3; design: dose 150 mg/kg, route oral; details: in vivo
[19] = molecular target: Phosphatidylinositol 4,5-bisphosphate 3-kinase catalytic subunit beta isoform (Homo sapiens, UniProt P42338); assay: Inhibition of PI3Kbeta-mediated Akt phosphorylation at S473 in PTEN-deficient human PC3 cells after 0.5 to 2 hrs by Immunoblotting assay; type: cell-based, PC-3
[20] = molecular target: Phosphatidylinositol 4,5-bisphosphate 3-kinase catalytic subunit gamma isoform (Homo sapiens, UniProt P48736); assay: Inhibition of C-terminal ploy-His-tagged human PI3Kgamma expressed in baculovirus-infected sf9 cells using PI(4,5)P2 as substrate after 15 mins by HTRF assay
[21] = Half life in Beagle dog at 10 mg/kg, po; type: ADME, organism-based, Canis lupus familiaris; design: dose 10 mg/kg, route oral; details: in vivo
[22] = Tmax in Balb/c mouse plasma at 10 mg/kg, po by LC-MS/MS analysis; type: ADME, organism-based; design: dose 10 mg/kg, route oral
[23] = Cmax in Balb/c mouse plasma at 3 mg/kg, iv by LC-MS/MS analysis; type: ADME, organism-based; design: dose 3 mg/kg, route intravenous
[24] = Metabolic stability in mouse liver microsomes at 5 uM after 20 mins; details: liver microsomes
[25] = Apparent terminal half life in Balb/c mouse plasma at 100 mg/kg, po by LC-MS/MS analysis; type: ADME, organism-based; design: dose 100 mg/kg, route oral; details: read-out: betat1/2(app) (converted)
[26] = Cmax in nude rat at 3 mg/kg, iv; type: ADME, organism-based; design: dose 3 mg/kg, route intravenous; details: in vivo
[27] = Tmax in nude rat at 10 mg/kg, po; type: ADME, organism-based; design: dose 10 mg/kg, route oral; details: in vivo
[28] = AUC (infinity) in nude rat at 3 mg/kg, iv; type: ADME, organism-based; design: time infinity, dose 3 mg/kg, route intravenous; details: plasma

Phosphatidylinositol 4-phosphate 3-kinase C2 domain-containing subunit alpha, sequence (O00443 whole entry, the tested form may be a part): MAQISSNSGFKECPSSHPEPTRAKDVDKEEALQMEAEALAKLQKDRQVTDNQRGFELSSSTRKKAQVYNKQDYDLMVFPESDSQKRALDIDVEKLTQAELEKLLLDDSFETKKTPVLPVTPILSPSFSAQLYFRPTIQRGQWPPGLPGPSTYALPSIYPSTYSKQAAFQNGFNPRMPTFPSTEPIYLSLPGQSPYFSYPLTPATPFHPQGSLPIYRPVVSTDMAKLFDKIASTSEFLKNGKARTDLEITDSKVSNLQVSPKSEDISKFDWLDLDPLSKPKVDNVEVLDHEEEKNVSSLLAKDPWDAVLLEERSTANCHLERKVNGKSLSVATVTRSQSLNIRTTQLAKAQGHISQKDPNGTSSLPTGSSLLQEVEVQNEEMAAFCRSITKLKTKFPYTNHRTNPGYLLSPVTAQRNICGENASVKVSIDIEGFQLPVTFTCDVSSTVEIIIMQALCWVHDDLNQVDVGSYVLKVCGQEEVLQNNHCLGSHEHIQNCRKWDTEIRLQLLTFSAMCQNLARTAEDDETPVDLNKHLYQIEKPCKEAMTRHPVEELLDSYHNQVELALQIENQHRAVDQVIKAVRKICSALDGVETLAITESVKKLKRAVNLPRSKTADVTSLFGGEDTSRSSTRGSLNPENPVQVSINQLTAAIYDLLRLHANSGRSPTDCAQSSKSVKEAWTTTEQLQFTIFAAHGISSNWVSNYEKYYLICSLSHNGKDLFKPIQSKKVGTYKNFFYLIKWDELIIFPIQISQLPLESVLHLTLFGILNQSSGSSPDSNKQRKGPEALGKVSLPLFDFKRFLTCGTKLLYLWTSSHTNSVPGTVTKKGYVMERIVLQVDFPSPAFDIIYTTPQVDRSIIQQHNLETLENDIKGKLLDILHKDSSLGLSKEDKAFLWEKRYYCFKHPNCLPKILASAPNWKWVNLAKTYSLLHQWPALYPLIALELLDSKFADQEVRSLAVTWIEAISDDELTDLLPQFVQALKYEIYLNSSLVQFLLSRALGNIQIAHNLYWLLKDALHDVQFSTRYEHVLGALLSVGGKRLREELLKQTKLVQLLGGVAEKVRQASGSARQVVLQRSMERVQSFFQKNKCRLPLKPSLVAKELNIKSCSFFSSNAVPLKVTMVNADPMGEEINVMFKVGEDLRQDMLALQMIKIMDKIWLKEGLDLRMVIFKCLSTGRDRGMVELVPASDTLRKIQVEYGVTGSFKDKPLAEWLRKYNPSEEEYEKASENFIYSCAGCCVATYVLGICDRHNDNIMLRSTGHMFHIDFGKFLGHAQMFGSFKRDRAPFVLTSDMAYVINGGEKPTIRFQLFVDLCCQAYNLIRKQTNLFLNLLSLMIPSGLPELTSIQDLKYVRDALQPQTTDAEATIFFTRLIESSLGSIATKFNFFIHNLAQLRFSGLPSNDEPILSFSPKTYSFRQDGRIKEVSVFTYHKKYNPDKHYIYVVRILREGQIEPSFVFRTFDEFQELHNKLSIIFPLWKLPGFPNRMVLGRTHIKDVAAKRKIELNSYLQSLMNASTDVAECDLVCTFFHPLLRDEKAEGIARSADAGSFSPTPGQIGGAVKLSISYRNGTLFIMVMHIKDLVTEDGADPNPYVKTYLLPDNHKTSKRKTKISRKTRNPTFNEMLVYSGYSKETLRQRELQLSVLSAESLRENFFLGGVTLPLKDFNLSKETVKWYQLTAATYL
Phosphatidylinositol 4,5-bisphosphate 3-kinase catalytic subunit gamma isoform, sequence (P48736 whole entry, canonical isoform): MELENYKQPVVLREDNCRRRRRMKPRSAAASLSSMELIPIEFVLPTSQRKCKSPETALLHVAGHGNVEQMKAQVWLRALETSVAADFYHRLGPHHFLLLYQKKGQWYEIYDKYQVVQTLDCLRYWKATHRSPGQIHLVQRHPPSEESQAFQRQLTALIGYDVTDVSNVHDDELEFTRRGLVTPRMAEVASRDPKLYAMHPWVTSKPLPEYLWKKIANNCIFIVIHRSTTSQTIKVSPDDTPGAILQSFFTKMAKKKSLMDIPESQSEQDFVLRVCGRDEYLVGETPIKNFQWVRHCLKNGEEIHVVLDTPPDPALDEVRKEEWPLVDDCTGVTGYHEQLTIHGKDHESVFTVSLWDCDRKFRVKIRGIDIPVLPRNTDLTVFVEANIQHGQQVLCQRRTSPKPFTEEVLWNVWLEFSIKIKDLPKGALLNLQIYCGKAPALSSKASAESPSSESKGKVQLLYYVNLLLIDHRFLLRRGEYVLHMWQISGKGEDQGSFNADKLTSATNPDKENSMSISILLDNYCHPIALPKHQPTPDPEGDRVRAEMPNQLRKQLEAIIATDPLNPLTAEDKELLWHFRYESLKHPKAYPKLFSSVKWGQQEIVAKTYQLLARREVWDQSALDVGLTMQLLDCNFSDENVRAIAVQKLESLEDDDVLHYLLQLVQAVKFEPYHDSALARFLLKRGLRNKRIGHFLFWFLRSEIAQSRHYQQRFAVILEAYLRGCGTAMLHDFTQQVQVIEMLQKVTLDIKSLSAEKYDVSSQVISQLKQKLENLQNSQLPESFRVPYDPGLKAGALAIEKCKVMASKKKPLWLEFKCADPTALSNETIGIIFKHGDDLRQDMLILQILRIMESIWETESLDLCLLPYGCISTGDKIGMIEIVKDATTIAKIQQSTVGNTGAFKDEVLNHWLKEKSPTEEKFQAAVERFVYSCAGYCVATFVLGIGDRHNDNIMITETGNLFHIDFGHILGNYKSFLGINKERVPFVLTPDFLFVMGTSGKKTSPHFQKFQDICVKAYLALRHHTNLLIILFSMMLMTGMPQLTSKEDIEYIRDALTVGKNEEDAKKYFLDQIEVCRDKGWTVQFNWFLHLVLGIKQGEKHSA
Phosphatidylinositol 4,5-bisphosphate 3-kinase catalytic subunit beta isoform, sequence (P42338 whole entry, canonical isoform): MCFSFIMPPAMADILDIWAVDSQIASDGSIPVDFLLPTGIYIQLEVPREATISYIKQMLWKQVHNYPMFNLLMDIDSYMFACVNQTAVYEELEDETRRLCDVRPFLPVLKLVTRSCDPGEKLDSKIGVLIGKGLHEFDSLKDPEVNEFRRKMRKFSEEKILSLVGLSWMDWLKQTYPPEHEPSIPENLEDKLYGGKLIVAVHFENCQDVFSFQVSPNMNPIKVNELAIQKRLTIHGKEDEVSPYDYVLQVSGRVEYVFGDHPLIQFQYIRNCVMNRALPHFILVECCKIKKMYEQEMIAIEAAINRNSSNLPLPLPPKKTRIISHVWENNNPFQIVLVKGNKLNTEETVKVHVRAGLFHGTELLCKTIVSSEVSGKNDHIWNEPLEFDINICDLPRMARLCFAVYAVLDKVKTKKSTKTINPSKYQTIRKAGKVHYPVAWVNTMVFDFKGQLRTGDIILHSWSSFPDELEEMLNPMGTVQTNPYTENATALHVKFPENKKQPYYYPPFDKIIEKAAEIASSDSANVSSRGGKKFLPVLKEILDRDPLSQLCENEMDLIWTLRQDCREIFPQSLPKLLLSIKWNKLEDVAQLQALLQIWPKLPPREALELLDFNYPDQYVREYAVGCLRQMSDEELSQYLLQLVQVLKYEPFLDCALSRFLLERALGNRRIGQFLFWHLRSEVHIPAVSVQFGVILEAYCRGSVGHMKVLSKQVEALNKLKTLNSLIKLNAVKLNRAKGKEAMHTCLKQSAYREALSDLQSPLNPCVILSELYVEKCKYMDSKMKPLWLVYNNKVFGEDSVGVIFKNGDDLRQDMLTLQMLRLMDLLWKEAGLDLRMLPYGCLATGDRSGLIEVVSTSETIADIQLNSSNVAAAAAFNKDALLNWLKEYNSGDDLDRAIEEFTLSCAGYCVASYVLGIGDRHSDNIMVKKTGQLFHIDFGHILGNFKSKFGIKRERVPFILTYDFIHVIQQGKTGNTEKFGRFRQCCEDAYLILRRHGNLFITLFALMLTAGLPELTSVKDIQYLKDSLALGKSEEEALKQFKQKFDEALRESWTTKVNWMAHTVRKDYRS
Cytochrome P450 3A4, sequence (P08684 whole entry): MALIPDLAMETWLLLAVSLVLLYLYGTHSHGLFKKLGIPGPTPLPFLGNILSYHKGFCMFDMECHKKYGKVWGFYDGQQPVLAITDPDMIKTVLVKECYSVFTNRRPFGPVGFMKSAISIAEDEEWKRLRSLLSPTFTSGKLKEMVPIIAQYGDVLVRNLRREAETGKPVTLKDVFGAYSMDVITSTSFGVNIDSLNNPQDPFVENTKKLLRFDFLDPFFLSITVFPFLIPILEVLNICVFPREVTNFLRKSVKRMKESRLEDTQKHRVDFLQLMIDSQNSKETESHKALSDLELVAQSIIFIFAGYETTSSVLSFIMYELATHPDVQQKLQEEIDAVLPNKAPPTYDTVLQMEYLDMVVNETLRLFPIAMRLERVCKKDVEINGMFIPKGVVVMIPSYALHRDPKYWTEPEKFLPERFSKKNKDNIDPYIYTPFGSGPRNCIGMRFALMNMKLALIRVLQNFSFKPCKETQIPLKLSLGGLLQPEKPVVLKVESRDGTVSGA

Compound: C[C@H]1Cc2ccccc2N1C(=O)Cc1nc(N2CCOCC2)cc(=O)[nH]1 [SAR-260301]
- AUC(0-inf) [1]: 14000 ng·h/mL
- Activity [2]: Non-toxic
- Cmax [3]: 4920 ng/mL
- Activity [4]: Non-toxic
- Tmax [5]: 0.5 h
- concentration at 4 h [6]: 14.2 µM
- concentration at 16 h [7]: 0.026 µM
- IC50 [8]: 40 µM
- clearance [9]: 56.7 mL/min/kg
- bioavailability [10]: 55%
- half-life [11]: 6.9 h
- Vd [12]: 1 L/kg
- T/C [13]: 61%
- IC50 [14]: > 10 µM
- IC50 [15]: 3.81 µM
- bioavailability [16]: 30%
- T/C [17]: 39%
- Activity [18]: Non-toxic
- IC50 [19]: 0.049 µM
- IC50 [20]: 10 µM
- half-life [21]: 4.5 h
- Tmax [22]: 0.25 h
- Cmax [23]: 1870 ng/mL
- remaining at 20 min, 5 µM [24]: 19%
- half-life [25]: 2.5 h
- Cmax [26]: 1200 ng/mL
- Tmax [27]: 0.25 h
- AUC(0-inf) [28]: 864 ng·h/mL
